Experimental data from patent US10807995B2, “Thienothiophene compounds for long-acting injectable compositions and related methods” (priority 2018, dated 2020).
Where “and” joins values, the source holds several entries; their conditions need not be identical. Equal values may be shown once.

How the values were obtained:
[1] = Whole blood stability assay; type: in vitro ADME; conditions: prodrug 50 nM in fresh pooled human whole blood, 37 degrees C.; read-out: t1/2 at 37 degrees C. in human whole blood
Protocol: Naltrexone prodrug stability was assessed using freshly collected whole blood (within 24-hr collection) from pooled human (n=3) donors. The incubation mixtures were prepared by spiking the prodrugs into pre-warmed (37 degrees C.) fresh whole blood to a final concentration of 50 nM. After gentle mixing, aliquots of incubation mixtures were immediately transferred into four different 96-deep well plates. One plate was used for each time point. The plates were incubated at 37 degrees C. at a shaking speed of 100 rpm. At time points 15, 30, 60 and 120 minutes, the reaction was quenched by addition of a mixture of water and acetonitrile containing the internal standard (naltrexone-D3). Time point 0 minutes was prepared separately by spiking the prodrugs into a quenched whole blood to obtain a final concentration of 50 nM. All samples were vortexed at a low speed for 15 min and centrifuged at 3900 rpm for 15 min. Supernatants were transferred into 96-well plates for LC-MS/MS analysis to monitor the depletion of the prodrugs and the formation of naltrexone.
The amount of remaining prodrug and released naltrexone for each sample was quantitated against the calibration curves prepared with the whole blood. The human whole blood was purchased from BioreclamationIVT (Westbury, N.Y., USA). Naltrexone-D3 was purchased from Cerilliant® (Round Rock, Tex., USA). […] Where multiple runs have been completed, average values are reported.

[2] = Pharmacokinetic evaluation of the release of naltrexone from Compound 3 in rats following a single intramuscular injection; type: in vivo, Sprague-Dawley rats; conditions: for Compound 3 conc.: plasma of individual rats (Rat 1-6)
Protocol: Six male Sprague-Dawley rats were allowed to acclimate to the test facility for at least 3 days prior to study start. For dose administration of Compound 3, the rats were lightly anesthetized with isofluorane, the hind leg shaved and dosed intramuscularly with the formulation using a 20 G needle. […] Serial whole blood samples were collected via sublingual route (˜150 μL) at 1, 8, and 24 hours post dose, and at 2, 4, 7, 10, 15, 22, 24, 28, 35, 42, 49, 56 and 63 days post dose.
Blood samples were placed into K2EDTA blood collection tubes. After collection, blood samples were maintained chilled (on wet ice) and centrifuged (11,500 rpm for 2 minutes at 5 degrees C.) within 30 minutes to obtain plasma. Plasma was transferred into a single vial, 1.5 mL screw cap micro-centrifuge tube with inserts and stored at −80 degrees C. until analysis.
The formulation dosed was a crystalline suspension of Compound 3 (44.4 milligrams of Compound 3 dosed per animal), wherein the crystalline test article was characterized with a particle size distribution of Dv10=1.6 μm, Dv50=4.1 μm, and Dv90=7.7 μm (as measured via laser diffraction). The formulation was prepared the day before dosing. Details of the formulation dosed are described in Table D below.
Results of the above intramuscular rat study of Compound 3 are shown in Tables E and F. In particular, Table E reports the average blood plasma levels of naltrexone in rat (n=6) over 63 days following intramuscular administration.

[3] = rat plasma over 63 days after single IM Compound 3

Structure (SMILES): O=C(Cc1csc2c(CC(=O)Oc3ccc4c5c3O[C@H]3C(=O)CC[C@@]6(O)[C@@H](C4)N(CC4CC4)CC[C@]536)csc12)Oc1ccc2c3c1O[C@H]1C(=O)CC[C@@]4(O)[C@@H](C2)N(CC2CC2)CC[C@]314 [Compound 6, bis((4R,4aS,7aR,12bS)-3-(cyclopropylmethyl)-4a-hydroxy-7-oxo-2,3,4,4a,5,6,7,7a-octahydro-1H-4,12-methanobenzofuro[3,2-e]isoquinolin-9-yl) 2,2′-(thieno[3,2-b]thiophene-3,6-diyl)diacetate]
- half-life at 50 nM [1]: 11 min

Structure (SMILES): O=C(CCc1cc2sc(CCC(=O)Oc3ccc4c5c3O[C@H]3C(=O)CC[C@@]6(O)[C@@H](C4)N(CC4CC4)CC[C@]536)cc2s1)Oc1ccc2c3c1O[C@H]1C(=O)CC[C@@]4(O)[C@@H](C2)N(CC2CC2)CC[C@]314 [Compound 5, bis((4R,4aS,7aR,12bS)-3-(cyclopropylmethyl)-4a-hydroxy-7-oxo-2,3,4,4a,5,6,7,7a-octahydro-1H-4,12-methanobenzofuro[3,2-e]isoquinolin-9-yl) 3,3′-(thieno[3,2-b]thiophene-2,5-diyl)dipropionate]
- half-life at 50 nM [1]: 17.1 min

Structure (SMILES): O=C(Cc1cc2sc(CC(=O)Oc3ccc4c5c3O[C@H]3C(=O)CC[C@@]6(O)[C@@H](C4)N(CC4CC4)CC[C@]536)cc2s1)Oc1ccc2c3c1O[C@H]1C(=O)CC[C@@]4(O)[C@@H](C2)N(CC2CC2)CC[C@]314 [Compound 3, bis((4R,4aS,7aR,12bS)-3-(cyclopropylmethyl)-4a-hydroxy-7-oxo-2,3,4,4a,5,6,7,7a-octahydro-1H-4,12-methanobenzofuro[3,2-e]isoquinolin-9-yl) 2,2′-(thieno[3,2-b]thiophene-2,5-diyl)diacetate]
- half-life at 50 nM [1]: 6.46 min
- conversion of Compound 3 to naltrexone ([2]; in rats over 63 days): efficient conversion
- Compound 3 conc. ([2]; single IM Compound 3, day 0.042 (1 hr)): <0.1 ng/mL
- Compound 3 conc. ([2]; single IM Compound 3, day 0.33 (8 hr)): <0.1 ng/mL
- Compound 3 conc. ([2]; single IM Compound 3, day 1): <0.1 ng/mL
- Compound 3 conc. ([2]; single IM Compound 3, day 2): <0.1 ng/mL
- Compound 3 conc. ([2]; single IM Compound 3, day 4): <0.1 ng/mL
- Compound 3 conc. ([2]; single IM Compound 3, day 7): <0.1 ng/mL (5×) and 0.161 ng/mL
- Compound 3 conc. ([2]; single IM Compound 3, day 10): <0.1 ng/mL
- Compound 3 conc. ([2]; single IM Compound 3, day 15): <0.1 ng/mL
- Compound 3 conc. ([2]; single IM Compound 3, day 22): <0.1 ng/mL
- Compound 3 conc. ([2]; single IM Compound 3, day 24): <0.1 ng/mL
- Compound 3 conc. ([2]; single IM Compound 3, day 28): <0.1 ng/mL
- Compound 3 conc. ([2]; single IM Compound 3, day 35): <0.1 ng/mL
- Compound 3 conc. ([2]; single IM Compound 3, day 42): <0.1 ng/mL (5×) and 0.128 ng/mL
- Compound 3 conc. ([2]; single IM Compound 3, day 49): 0.134 ng/mL and 0.131 ng/mL and 0.138 ng/mL and <0.1 ng/mL (2×) and 0.143 ng/mL
- Compound 3 conc. ([2]; single IM Compound 3, day 56): 2.02 ng/mL and 0.753 ng/mL and 0.501 ng/mL and 0.281 ng/mL and 0.245 ng/mL and 0.237 ng/mL
- Compound 3 conc. ([2]; single IM Compound 3, day 63): 0.184 ng/mL and 0.229 ng/mL and 0.223 ng/mL and 0.234 ng/mL and 0.255 ng/mL and 0.207 ng/mL
- concentrations of parent Compound 3 [2, 3]: generally low to not measurable

Structure (SMILES): O=C(Cc1csc2scc(CC(=O)Oc3ccc4c5c3O[C@H]3C(=O)CC[C@@]6(O)[C@@H](C4)N(CC4CC4)CC[C@]536)c12)Oc1ccc2c3c1O[C@H]1C(=O)CC[C@@]4(O)[C@@H](C2)N(CC2CC2)CC[C@]314 [Compound 2, bis((4R,4aS,7aR,12bS)-3-(cyclopropylmethyl)-4a-hydroxy-7-oxo-2,3,4,4a,5,6,7,7a-octahydro-1H-4,12-methanobenzofuro[3,2-e]isoquinolin-9-yl) 2,2′-(thieno[2,3-b]thiophene-3,4-diyl)diacetate]
- half-life at 50 nM [1]: 15.7 min

Structure (SMILES): O=C(Cc1cc2cc(CC(=O)Oc3ccc4c5c3O[C@H]3C(=O)CC[C@@]6(O)[C@@H](C4)N(CC4CC4)CC[C@]536)sc2s1)Oc1ccc2c3c1O[C@H]1C(=O)CC[C@@]4(O)[C@@H](C2)N(CC2CC2)CC[C@]314 [Compound 1, bis((4R,4aS,7aR,12bS)-3-(cyclopropylmethyl)-4a-hydroxy-7-oxo-2,3,4,4a,5,6,7,7a-octahydro-1H-4,12-methanobenzofuro[3,2-e]isoquinolin-9-yl) 2,2′-(thieno[2,3-b]thiophene-2,5-diyl)diacetate]
- half-life at 50 nM [1]: 11 min

Structure (SMILES): O=C(Oc1ccc2c3c1O[C@H]1C(=O)CC[C@@]4(O)[C@@H](C2)N(CC2CC2)CC[C@]314)c1ccc(C(=O)Oc2ccc3c4c2O[C@H]2C(=O)CC[C@@]5(O)[C@@H](C3)N(CC3CC3)CC[C@]425)cc1 [Reference Compound A, NTX-3-terephthaloyl-NTX, reference compound]
- half-life at 50 nM [1]: 54.7 min

Structure (SMILES): O=C(O)Cc1cc2sc(CC(=O)Oc3ccc4c5c3O[C@H]3C(=O)CC[C@@]6(O)[C@@H](C4)N(CC4CC4)CC[C@]536)cc2s1 [Compound 3i, 2-(5-(2-(((4R,4aS,7aR,12bS)-3-(cyclopropylmethyl)-4a-hydroxy-7-oxo-2,3,4,4a,5,6,7,7a-octahydro-1H-4,12-methanobenzofuro[3,2-e]isoquinolin-9-yl)oxy)-2-oxoethyl)thieno[3,2-b]thiophen-2-yl)acetic acid]
- concentrations of the resultant intermediate Compound 3i [2, 3]: generally low to not measurable
- Compound 3i conc. ([2]; resultant intermediate in plasma of individual rats (Rat 1-6) after single IM Compound 3, day 2): <0.2 ng/mL
- Compound 3i conc. ([2]; resultant intermediate in plasma of individual rats (Rat 1-6) after single IM Compound 3, day 4): <0.2 ng/mL
- Compound 3i conc. ([2]; resultant intermediate in plasma of individual rats (Rat 1-6) after single IM Compound 3, day 7): <0.2 ng/mL
- Compound 3i conc. ([2]; resultant intermediate in plasma of individual rats (Rat 1-6) after single IM Compound 3, day 10): <0.2 ng/mL
- Compound 3i conc. ([2]; resultant intermediate in plasma of individual rats (Rat 1-6) after single IM Compound 3, day 15): <0.2 ng/mL
- Compound 3i conc. ([2]; resultant intermediate in plasma of individual rats (Rat 1-6) after single IM Compound 3, day 22): <0.2 ng/mL
- Compound 3i conc. ([2]; resultant intermediate in plasma of individual rats (Rat 1-6) after single IM Compound 3, day 24): <0.2 ng/mL
- Compound 3i conc. ([2]; resultant intermediate in plasma of individual rats (Rat 1-6) after single IM Compound 3, day 28): <0.2 ng/mL
- Compound 3i conc. ([2]; resultant intermediate in plasma of individual rats (Rat 1-6) after single IM Compound 3, day 35): <0.2 ng/mL
- Compound 3i conc. ([2]; resultant intermediate in plasma of individual rats (Rat 1-6) after single IM Compound 3, day 42): <0.2 ng/mL (4×) and 0.805 ng/mL and 0.149 ng/mL

Structure (SMILES): Cc1c(CC(=O)Oc2ccc3c4c2O[C@H]2C(=O)CC[C@@]5(O)[C@@H](C3)N(CC3CC3)CC[C@]425)sc2c(C)c(CC(=O)Oc3ccc4c5c3O[C@H]3C(=O)CC[C@@]6(O)[C@@H](C4)N(CC4CC4)CC[C@]536)sc12 [Compound 4, bis((4R,4aS,7aR,12bS)-3-(cyclopropylmethyl)-4a-hydroxy-7-oxo-2,3,4,4a,5,6,7,7a-octahydro-1H-4,12-methanobenzofuro[3,2-e]isoquinolin-9-yl) 2,2′-(3,6-dimethylthieno[3,2-b]thiophene-2,5-diyl)diacetate]
- half-life at 50 nM [1]: 20.7 min
